In ChEMBL document CHEMBL4229332, “Novel multi-target azinesulfonamides of cyclic amine derivatives as potential antipsychotics with pro-social and pro-cognitive effects” (Eur J Med Chem, 2018):

Key:
Cavia porcellus [1] = assay: Cardiotoxicity in guinea pig assessed as effect on QRS interval time at 5 mg/kg, ip measured after 70 mins by ECG analysis (reference value: 26.2 to 31.6 milliseconds); assay type: toxicity, organism-based; settings: in vivo
Rattus norvegicus [2] = species on record: Rattus norvegicus; assay: animal or person; settings: Sprague-Dawley, ip, read-out: MED
Description: Antipsychotic activity in ip dosed Sprague-Dawley rat assessed as reduction in PCP-induced hyper-locomotion pretreated for 60 mins followed by PCP addition measured for 30 mins starting 15 min after rat reintroduction to auto-tracks

[3] = Ratio of drug level in brain to plasma in Wistar rat at 3 mg/kg, ip measured after 30 mins by LC-MS/MS analysis; assay type: ADME, organism-based; settings: read-out: BPR
Cavia porcellus [4] = assay: Cardiotoxicity in guinea pig assessed as effect on RR interval time at 5 mg/kg, ip measured after 80 mins by ECG analysis (reference value: 208.4 to 238.4 milliseconds); assay type: toxicity, organism-based; settings: in vivo
Cytochrome P450 2D6 = Cytochrome P450 2D6 (Homo sapiens, UniProt P10635); assay: Inhibition of human supersome CYP2D6 using bufuralol as substrate assessed as bufuralol 1'-hydroxylation after 30 mins by HPLC-UV detection; assay type: ADME
Cytochrome P450 2D6, sequence (P10635 whole entry): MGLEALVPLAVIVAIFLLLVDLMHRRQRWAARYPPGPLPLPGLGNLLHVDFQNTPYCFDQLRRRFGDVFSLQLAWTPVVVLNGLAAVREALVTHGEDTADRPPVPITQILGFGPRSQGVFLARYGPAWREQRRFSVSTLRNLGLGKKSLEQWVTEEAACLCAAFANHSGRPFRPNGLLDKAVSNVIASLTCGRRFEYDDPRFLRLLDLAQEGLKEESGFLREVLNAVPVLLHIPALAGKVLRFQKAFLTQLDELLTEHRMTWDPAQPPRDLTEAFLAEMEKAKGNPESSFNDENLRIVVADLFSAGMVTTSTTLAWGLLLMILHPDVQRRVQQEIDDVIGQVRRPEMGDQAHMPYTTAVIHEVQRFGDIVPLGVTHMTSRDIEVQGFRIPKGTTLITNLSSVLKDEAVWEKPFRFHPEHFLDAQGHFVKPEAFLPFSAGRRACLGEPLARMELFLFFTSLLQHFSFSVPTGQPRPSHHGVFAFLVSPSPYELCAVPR

Cavia porcellus [5] = assay: Cardiotoxicity in guinea pig assessed as effect on RR interval time at 5 mg/kg, ip measured after 40 mins by ECG analysis (reference value: 208.4 to 238.4 milliseconds); assay type: toxicity, organism-based; settings: in vivo
Cavia porcellus [6] = assay: Cardiotoxicity in guinea pig assessed as effect on frequence of heart rate at 5 mg/kg, ip measured after 80 mins by ECG analysis (reference value: 262 to 296 /min); assay type: toxicity, organism-based; settings: in vivo
Cavia porcellus [7] = assay: Cardiotoxicity in guinea pig assessed as effect on QTc interval time at 5 mg/kg, ip measured after 30 mins by ECG analysis (reference value: […] to […] milliseconds); assay type: toxicity, organism-based; settings: in vivo, 0.5 h
[8] = target: T1, 5-hydroxytryptamine receptor 1A (Homo sapiens) (UniProt P08908); assay: Antagonist activity at human 5-HT1AR expressed in mouse BA/F3 cells assessed as inhibition of serotonin-induced calcium flux at 10^-6 M by fluorimetric method; assay type: functional, cell-based
T1 sequence (whole entry): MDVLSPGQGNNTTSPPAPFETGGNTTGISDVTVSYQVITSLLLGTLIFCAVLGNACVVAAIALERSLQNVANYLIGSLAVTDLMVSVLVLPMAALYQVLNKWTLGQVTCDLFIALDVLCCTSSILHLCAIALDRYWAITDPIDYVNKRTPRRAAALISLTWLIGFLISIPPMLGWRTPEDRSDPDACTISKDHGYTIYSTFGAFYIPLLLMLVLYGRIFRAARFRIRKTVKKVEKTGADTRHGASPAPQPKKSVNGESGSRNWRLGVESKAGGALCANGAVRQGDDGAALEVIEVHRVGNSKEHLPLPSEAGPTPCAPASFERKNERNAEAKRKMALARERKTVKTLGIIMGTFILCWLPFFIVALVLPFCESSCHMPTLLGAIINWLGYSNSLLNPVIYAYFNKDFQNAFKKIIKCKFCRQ

[9] = Drug level in Wistar rat brain at 3 mg/kg, ip measured after 30 mins by LC-MS/MS analysis; assay type: ADME, organism-based; settings: read-out: Drug uptake
Cavia porcellus [10] = assay: Cardiotoxicity in guinea pig assessed as effect on PR interval time at 5 mg/kg, ip measured after 50 mins by ECG analysis (reference value: 58.8 to 63.8 milliseconds); assay type: toxicity, organism-based; settings: in vivo
[11] = Ratio of drug level in brain to plasma in Wistar rat at 3 mg/kg, ip measured after 15 mins by LC-MS/MS analysis; assay type: ADME, organism-based; settings: read-out: BPR
Cavia porcellus [12] = assay: Cardiotoxicity in guinea pig assessed as effect on PR interval time at 5 mg/kg, ip measured after 40 mins by ECG analysis (reference value: 58.8 to 63.8 milliseconds); assay type: toxicity, organism-based; settings: in vivo
Cavia porcellus [13] = assay: Cardiotoxicity in guinea pig assessed as effect on frequence of heart rate at 5 mg/kg, ip measured after 70 mins by ECG analysis (reference value: 262 to 296 /min); assay type: toxicity, organism-based; settings: in vivo
Rattus norvegicus [14] = species on record: Rattus norvegicus; assay: animal or person; settings: Sprague-Dawley, ip, read-out: MED; remark: listed apart in the source
Description: Reversal of ketamine-induced working social withdrawal in ip dosed Sprague-Dawley rat pretreated for 60 mins followed by ketamine administration

Cavia porcellus [15] = assay: Cardiotoxicity in guinea pig assessed as effect on PR interval time at 5 mg/kg, ip measured after 80 mins by ECG analysis (reference value: 58.8 to 63.8 milliseconds); assay type: toxicity, organism-based; settings: in vivo
Cavia porcellus [16] = assay: Cardiotoxicity in guinea pig assessed as effect on PR interval time at 5 mg/kg, ip measured after 70 mins by ECG analysis (reference value: 58.8 to 63.8 milliseconds); assay type: toxicity, organism-based; settings: in vivo
Cavia porcellus [17] = assay: Cardiotoxicity in guinea pig assessed as effect on RR interval time at 5 mg/kg, ip measured after 30 mins by ECG analysis (reference value: 208.4 to 238.4 milliseconds); assay type: toxicity, organism-based; settings: in vivo, 0.5 h
Cavia porcellus [18] = assay: Cardiotoxicity in guinea pig assessed as effect on QT interval time at 5 mg/kg, ip measured after 70 mins by ECG analysis (reference value: 127.6 to 131.2 milliseconds); assay type: toxicity, organism-based; settings: in vivo
Cavia porcellus [19] = assay: Cardiotoxicity in guinea pig assessed as effect on frequence of heart rate at 5 mg/kg, ip measured after 10 mins by ECG analysis (reference value: 262 to 296 /min); assay type: toxicity, organism-based; settings: in vivo
Rattus norvegicus [20] = assay: Effect on failure incidence during conditioned avoidance response test in Sprague-Dawley rat at 3 mg/kg, ip administered 60 mins prior to testing; assay type: ADME, organism-based; settings: in vivo, 1 h
[21] = Drug level in Wistar rat plasma at 3 mg/kg, ip measured after 15 mins by LC-MS/MS analysis; assay type: ADME, organism-based
[22] = Drug level in Wistar rat brain at 3 mg/kg, ip measured after 15 mins by LC-MS/MS analysis; assay type: ADME, organism-based; settings: read-out: Drug uptake
Cavia porcellus [23] = assay: Cardiotoxicity in guinea pig assessed as effect on QTc interval time at 5 mg/kg, ip measured after 50 mins by ECG analysis (reference value: […] to […] milliseconds); assay type: toxicity, organism-based; settings: in vivo
Cavia porcellus [24] = assay: Cardiotoxicity in guinea pig assessed as effect on RR interval time at 5 mg/kg, ip measured after 10 mins by ECG analysis (reference value: 208.4 to 238.4 milliseconds); assay type: toxicity, organism-based; settings: in vivo
[25] = Toxicity in ip dosed Sprague-Dawley rat assessed as sedation pretreated for 60 mins followed by PCP addition measured for 30 mins starting 15 min after rat reintroduction to auto-tracks; assay type: organism-based; settings: in vivo
Cavia porcellus [26] = assay: Cardiotoxicity in guinea pig assessed as effect on PR interval time at 5 mg/kg, ip measured after 10 mins by ECG analysis (reference value: 58.8 to 63.8 milliseconds); assay type: toxicity, organism-based; settings: in vivo
Cavia porcellus [27] = assay: Cardiotoxicity in guinea pig assessed as effect on QT interval time at 5 mg/kg, ip measured after 10 mins by ECG analysis (reference value: 127.6 to 131.2 milliseconds); assay type: toxicity, organism-based; settings: in vivo
Cavia porcellus [28] = assay: Cardiotoxicity in guinea pig assessed as effect on QTc interval time at 5 mg/kg, ip measured after 70 mins by ECG analysis (reference value: […] to […] milliseconds); assay type: toxicity, organism-based; settings: in vivo
Cavia porcellus [29] = assay: Cardiotoxicity in guinea pig assessed as effect on PR interval time at 5 mg/kg, ip measured after 20 mins by ECG analysis (reference value: 58.8 to 63.8 milliseconds); assay type: toxicity, organism-based; settings: in vivo
Cavia porcellus [30] = assay: Cardiotoxicity in guinea pig assessed as effect on QT interval time at 5 mg/kg, ip measured after 40 mins by ECG analysis (reference value: 127.6 to 131.2 milliseconds); assay type: toxicity, organism-based; settings: in vivo

Molecule `O=S(=O)(c1cncc2ccccc12)N1CCC[C@H]1CCN1CCN(c2nsc3ccccc23)CC1` has a Time (Cavia porcellus [1]) of 27.8 ms, a minimal effective dose (Rattus norvegicus [2]) of 1 mg/kg and a Kp at 0.5 h [3] of 1.33. It also gave a Time (Cavia porcellus [4]) of 213 ms, an IC50 (Cytochrome P450 2D6) greater than 100 µM and a Time (Cavia porcellus [5]) of 211 ms. For the same molecule, the Activity (Cavia porcellus [6]) was 284 min⁻¹, the Time (Cavia porcellus [7]) was 280.6 ms and the inhibition [8] was 87%. The concentration at 0.5 h [9] was 177 nM, the Time (Cavia porcellus [10]) was 60 ms and the Kp at 0.25 h [11] was 0.59. The Time (Cavia porcellus [12]) was 61 ms, the Activity (Cavia porcellus [13]) was 287 min⁻¹ and the minimal effective dose (Rattus norvegicus [14]) was 3 mg/kg. For the same molecule, the Time (Cavia porcellus [15]) was 61.8 ms, the Time (Cavia porcellus [16]) was 60.8 ms and the Time (Cavia porcellus [17]) was 212.6 ms. For the same molecule, the Time (Cavia porcellus [18]) was 125.4 ms, the Activity (Cavia porcellus [19]) was 304 min⁻¹ and the Activity (Rattus norvegicus [20]) was “Non-Toxic”. The concentration at 0.25 h [21] was 249 nM, the concentration at 0.25 h [22] was 153 nM and the Time (Cavia porcellus [23]) was 266 ms. For the same molecule, the Time (Cavia porcellus [24]) was 202 ms, the MTD at 0.5 h [25] was 3 mg/kg and the Time (Cavia porcellus [26]) was 59 ms. The Time (Cavia porcellus [27]) was 121.8 ms, the Time (Cavia porcellus [28]) was 274.6 ms and the Time (Cavia porcellus [29]) was 59.6 ms. For the same molecule, the Time (Cavia porcellus [30]) was 125.4 ms.
`O=S(=O)(c1cncc2ccccc12)N1CCC[C@H]1CCN1CCN(c2cccc3sccc23)CC1` gave a Time (Cavia porcellus [1]) of 30.8 ms, a minimal effective dose (Rattus norvegicus [2]) of 1 mg/kg and a Kp at 0.5 h [3] of 2.44. For the same molecule, the Time (Cavia porcellus [4]) was 214 ms, the IC50 (Cytochrome P450 2D6) was greater than 100 µM and the Time (Cavia porcellus [5]) was 227.2 ms. The Activity (Cavia porcellus [6]) was 286 min⁻¹, the Time (Cavia porcellus [7]) was 262.8 ms and the inhibition [8] was 80%. It also gave a concentration at 0.5 h [9] of 245 nM, a Time (Cavia porcellus [10]) of 64.2 ms and a Kp at 0.25 h [11] of 1.69. The Time (Cavia porcellus [12]) was 63.4 ms, the Activity (Cavia porcellus [13]) was 271 min⁻¹ and the minimal effective dose (Rattus norvegicus [14]) was 1 mg/kg. For the same molecule, the Time (Cavia porcellus [15]) was 63.8 ms, the Time (Cavia porcellus [16]) was 64.2 ms and the Time (Cavia porcellus [17]) was 235.2 ms. The Time (Cavia porcellus [18]) was 124 ms, the Activity (Cavia porcellus [19]) was 263 min⁻¹ and the Activity (Rattus norvegicus [20]) was “Non-Toxic”. For the same molecule, the concentration at 0.25 h [21] was 188 nM, the concentration at 0.25 h [22] was 317 nM and the Time (Cavia porcellus [23]) was 265 ms. For the same molecule, the Time (Cavia porcellus [24]) was 236.6 ms, the MTD at 0.5 h [25] was 3 mg/kg and the Time (Cavia porcellus [26]) was 62.8 ms. It also gave a Time (Cavia porcellus [27]) of 127.4 ms, a Time (Cavia porcellus [28]) of 265.6 ms and a Time (Cavia porcellus [29]) of 63.8 ms. For the same molecule, the Time (Cavia porcellus [30]) was 125.2 ms.
